We go through two molecules from ChEMBL document CHEMBL4007425, “Drug Repurposing of Histone Deacetylase Inhibitors That Alleviate Neutrophilic Inflammation in Acute Lung Injury and Idiopathic Pulmonary Fibrosis via Inhibiting Leukotriene A4 Hydrolase and Blocking LTB4 Biosynthesis” (J Med Chem, 2017).

The source made the active and inactive calls. The calls are words filed in the database; no cut-off is given here.

The subject of data set [1] is Mus musculus. As to the kind of experiment: Anti-inflammatory activity in LPS-induced C57BL/6 mouse model of acute lung injury assessed as reduction in lung lesions at 10 to 50 mg/kg, ip pretreated for 1 hr followed LPS challenge measured after 24 hrs by hematoxylin and eosin staining based microscopy. The data set is classed as functional, organism-based.
Data set [2] relates to Mus musculus. As to the kind of experiment: Anti-inflammatory activity in BLM-induced C57BL/6 mouse model of acute lung injury assessed as reduction in IL-6 level in BALF at 25 and 50 mg/kg, ip qd for 7 days post BLM challenge measured on day 7 by ELISA. The data set is classed as functional, organism-based. (In general: In an ELISA, binding on a coated surface is turned into a signal by an enzyme label.)

In data set [3] the test system is Mus musculus. As to the kind of experiment: Anti-inflammatory activity in LPS-induced C57BL/6 mouse model of acute lung injury assessed as reduction in hyperemia of pulmonary alveolar septa at 10 to 50 mg/kg, ip pretreated for 1 hr followed LPS challenge measured after 24 hrs by hematoxylin and eosin staining based microscopy. The data set is classed as functional, organism-based.

For data set [4], the system named is Mus musculus. As to the kind of experiment: Protection against BLM-induced lung fibrosis in C57BL/6 mouse assessed as reduction in deposition of collagen fibers at 25 and 50 mg/kg, ip qd for 7 days post BLM challenge measured on day 7 by Massons trichrome staining based method. The data set is classed as functional, organism-based.
The subject of data set [5] is Mus musculus. As to the kind of experiment: Anti-inflammatory activity in LPS-induced C57BL/6 mouse model of acute lung injury assessed as reduction in IL-6 level pretreated intraperitoneally for 1 hr followed LPS challenge after 24 hrs by ELISA. The data set is classed as functional.
Data set [6] has as its system Mus musculus. As to the kind of experiment: Anti-inflammatory activity in BLM-induced C57BL/6 mouse model of acute lung injury assessed as reduction in IL-1beta level in BALF at 25 and 50 mg/kg, ip qd for 7 days post BLM challenge measured on day 7 by ELISA. The data set is classed as functional, organism-based.
In another data set the test system is Plasma. As to the kind of experiment: Plasma concentration in mouse by liquid chromatography mass spectrometry. The data set is classed as ADME, cell-free.
Data set [7] has as its system Mus musculus. The data set is described as follows: Anti-inflammatory activity in BLM-induced C57BL/6 mouse model of acute lung neutrophilic inflammation assessed as reduction in number of neutrophils in BALF at 25 and 50 mg/kg, ip qd for 7 days post BLM challenge measured on day 7. In kind it is functional, organism-based.
Data set [8] relates to Mus musculus. As to the kind of experiment: Anti-inflammatory activity in BLM-induced C57BL/6 mouse model of acute lung neutrophilic inflammation assessed as reduction in total cell number in BALF at 25 and 50 mg/kg, ip qd for 7 days post BLM challenge measured on day 7. The data set is classed as functional, organism-based.
Data set [9] deals with Mus musculus. The data set is described as follows: Anti-inflammatory activity in LPS-induced C57BL/6 mouse model of acute lung injury assessed as reduction in IL-6 mRNA level pretreated intraperitoneally for 1 hr followed LPS challenge after 24 hrs by qRT-PCR method. The data set is classed as functional.
The test system of data set [10] is Mus musculus. As to the kind of experiment: Anti-inflammatory activity in BLM-induced C57BL/6 mouse model of acute lung neutrophilic inflammation assessed as LTB4 level at 50 mg/kg, ip qd for 7 days post BLM challenge measured on day 7 (reference value: 139.23 pg/ml). The data set is classed as functional.
For data set [11], the system named is Mus musculus. As to the kind of experiment: Protection against BLM-induced lung fibrosis in C57BL/6 mouse assessed as TGF-beta1 level at 25 and 50 mg/kg, ip qd for 7 days post BLM challenge measured on day 7 by qRT-PCR method. In kind it is functional, organism-based. A general note: In qPCR the cycle at which signal appears reflects the starting amount.
Data set [12] relates to Mus musculus. As to the kind of experiment: Protection against BLM-induced lung fibrosis in C57BL/6 mouse assessed as TGF-beta1 level at 50 mg/kg, ip qd for 7 days post BLM challenge measured on day 7 by ELISA (reference value: 75.39 pg/ml). In kind it is functional.
Data set [13] concerns Mus musculus. As to the kind of experiment: Anti-inflammatory activity in LPS-induced C57BL/6 mouse model of acute lung injury assessed as reduction in IL-1beta level pretreated intraperitoneally for 1 hr followed LPS challenge after 24 hrs by ELISA. The data set is classed as functional.
The test system of data set [14] is Mus musculus. As to the kind of experiment: Protection against BLM-induced lung fibrosis in C57BL/6 mouse assessed as TGF-beta1 level at 25 and 50 mg/kg, ip qd for 7 days post BLM challenge measured on day 14 by qRT-PCR method. In kind it is functional, organism-based.
The test system of data set [15] is Mus musculus. As to the kind of experiment: Anti-inflammatory activity in LPS-induced C57BL/6 mouse model of acute lung injury assessed as reduction in total number of leucocytes in BALF at 10 to 50 mg/kg, ip pretreated for 1 hr followed LPS challenge measured after 24 hrs. In kind it is functional, organism-based.
In data set [16] the test system is Mus musculus. As to the kind of experiment: Anti-inflammatory activity in LPS-induced C57BL/6 mouse model of acute lung injury assessed as reduction in pulmonary edema by measuring lung wet and dry ratio at 10 to 50 mg/kg, ip pretreated for 1 hr followed LPS challenge after 24 hrs. In kind it is functional, organism-based.
Data set [17] concerns Mus musculus. As to the kind of experiment: Anti-inflammatory activity in BLM-induced C57BL/6 mouse model of acute lung neutrophilic inflammation assessed as protein concentration in BALF at 50 mg/kg, ip qd for 7 days post BLM challenge measured on day 7 (reference value: 2.39 mg/ml). The data set is classed as functional.
Data set [18] concerns Mus musculus. The data set is described as follows: Anti-inflammatory activity in LPS-induced C57BL/6 mouse model of acute lung injury assessed as reduction in TNFalpha mRNA level pretreated intraperitoneally for 1 hr followed LPS challenge after 24 hrs by qRT-PCR method. The data set is classed as functional.
Data set [19] relates to Mus musculus. As to the kind of experiment: Anti-inflammatory activity in LPS-induced C57BL/6 mouse model of acute lung injury assessed as reduction in alveolar vascular permeability at 10 to 50 mg/kg, ip pretreated for 1 hr followed LPS challenge measured after 24 hrs by Evans blue dye based microscopy. The data set is classed as functional, organism-based.
The test system of data set [20] is Mus musculus. As to the kind of experiment: Anti-inflammatory activity in BLM-induced C57BL/6 mouse model of acute lung neutrophilic inflammation assessed as reduction neutrophil count at 50 mg/kg, ip qd for 7 days post BLM challenge measured on day 7. The data set is classed as functional, organism-based.
Data set [21] deals with Mus musculus. The data set is described as follows: Protection against BLM-induced lung fibrosis in C57BL/6 mouse assessed as TGF-beta1 level at 10 and 25 mg/kg, ip qd for 7 days post BLM challenge measured on day 7 by qRT-PCR method. In kind it is functional, organism-based.
The subject of data set [22] is Mus musculus. As to the kind of experiment: Anti-inflammatory activity in BLM-induced C57BL/6 mouse model of acute lung neutrophilic inflammation assessed as MPO activity at 25 mg/kg, ip qd for 7 days post BLM challenge measured on day 7 (reference value: 0.98 U/g). In kind it is functional.
For data set [23], the system named is Mus musculus. As to the kind of experiment: Anti-inflammatory activity in BLM-induced C57BL/6 mouse model of acute lung neutrophilic inflammation assessed as reduction in macrophage number in BALF at 10 and 25 mg/kg, ip qd for 7 days post BLM challenge measured on day 7. The data set is classed as functional, organism-based.
For data set [24], the system named is Mus musculus. As to the kind of experiment: Protection against BLM-induced lung fibrosis in C57BL/6 mouse assessed as TGF-beta1 level at 25 mg/kg, ip qd for 7 days post BLM challenge measured on day 14 by ELISA (reference value: 99.30 pg/ml). In kind it is functional.
The test system of data set [25] is Mus musculus. As to the kind of experiment: Protection against BLM-induced lung fibrosis in C57BL/6 mouse assessed as TGF-beta1 level at 25 mg/kg, ip qd for 7 days post BLM challenge measured on day 7 by ELISA (reference value: 75.39 pg/ml). In kind it is functional.
Data set [26] deals with Mus musculus. As to the kind of experiment: Anti-inflammatory activity in BLM-induced C57BL/6 mouse model of acute lung neutrophilic inflammation assessed as LTB4 level at 25 mg/kg, ip qd for 7 days post BLM challenge measured on day 7 (reference value: 139.23 pg/ml). In kind it is functional.
Data set [27] concerns Mus musculus. As to the kind of experiment: Protection against BLM-induced lung fibrosis in C57BL/6 mouse assessed as reduction in hydroxyproline level at 25 mg/kg, ip qd for 7 days post BLM challenge measured on day 14. The data set is classed as functional. Particulars: C57BL/6, ip.
For data set [28], the species on record is Mus musculus. Conditions: C57BL/6, at 25 mg/kg.
Description: Inhibition of LTB4 biosynthesis in LPS-induced C57BL/6 mouse model of acute lung injury BLAF at 25 mg/kg, ip by ELISA

As to `O=C(CCCCCCC(=O)Nc1ccccc1)NO` [VORINOSTAT], the outcome in the data set on Mus musculus [1], in the data set with Mus musculus [2], in the data set with Mus musculus [3], with Mus musculus [4], in the data set with Mus musculus [6] and in the data set on Mus musculus [7] was Active. The result with Mus musculus [8], in the data set with Mus musculus [11], in the data set with Mus musculus [14], in the data set with Mus musculus [15], in the data set with Mus musculus [16] and in the data set on Mus musculus [19] was Active. Further, the Activity entry is “Dose-dependent effect” with Mus musculus [5]; “Dose-dependent effect” in the data set with Mus musculus [9]; 43.19 pg/mL in the data set on Mus musculus [10]; 34.09 pg/mL in the data set on Mus musculus [12]; “Dose-dependent effect” in the data set on Mus musculus [13]; 1.79 mg/mL with Mus musculus [17]. Besides, the Activity result with Mus musculus [18] was “Dose-dependent effect”. For the same molecule, the concentration in the data set on Plasma lay in the range of 1 to 10 µM.

For `CN(C)c1ccc(C(=O)NCCCCCCC(=O)NO)cc1`, the result in the data set on Mus musculus [20], in the data set with Mus musculus [21] and in the data set with Mus musculus [23] was Active. Also, the Activity was determined as 0.56 U/g in the data set on Mus musculus [22], 38.22 pg/mL in the data set with Mus musculus [24], 31.74 pg/mL in the data set with Mus musculus [25] and 37.23 pg/mL in the data set with Mus musculus [26]. Moreover, the inhibition in vivo at 25 mg/kg with Mus musculus [27] came out at 34%. The inhibition entry in the data set listed under Mus musculus [28] is “Active”.

For orientation: inhibition in vivo means the drop in the measured response relative to a control, in per cent.
